The values that follow come from ChEMBL document CHEMBL1154521, “2,3-Dihydrowithaferin A-3beta-O-sulfate, a new potential prodrug of withaferin A from aeroponically grown Withania somnifera” (2009).

Activity calls are given as the source filed them. No cut-off for these calls is given here.

For assay [1], the system named is WI-38. Nature of the assay: Induction of F-actin aggregation in human WI38 cells after 24 hrs. Type of assay: functional, cell-based.
Assay [2] is described as follows: Growth inhibition of human NCI60 cells. The class given is functional.
Assay [3] concerns MCF7. Nature of the assay: Cytotoxicity against human MCF7 cells by MTT assay. Type of assay: functional. A general note: Formazan colour is commonly taken as a measure of viable cells.
Assay [4] relates to MCF7. The assay can be described thus: Cytotoxicity against human MCF7 cells after 72 hrs by MTT assay. Type of assay: functional, cell-based.
The test system of assay [5] is WI-38. The assay can be described thus: Induction of F-actin aggregation in human WI38 cells after 4 hrs. The class given is functional, cell-based.
The target in assay [6] is T1, Heat shock factor protein 1 (Mus musculus) (UniProt P38532).
T1 sequence (whole entry): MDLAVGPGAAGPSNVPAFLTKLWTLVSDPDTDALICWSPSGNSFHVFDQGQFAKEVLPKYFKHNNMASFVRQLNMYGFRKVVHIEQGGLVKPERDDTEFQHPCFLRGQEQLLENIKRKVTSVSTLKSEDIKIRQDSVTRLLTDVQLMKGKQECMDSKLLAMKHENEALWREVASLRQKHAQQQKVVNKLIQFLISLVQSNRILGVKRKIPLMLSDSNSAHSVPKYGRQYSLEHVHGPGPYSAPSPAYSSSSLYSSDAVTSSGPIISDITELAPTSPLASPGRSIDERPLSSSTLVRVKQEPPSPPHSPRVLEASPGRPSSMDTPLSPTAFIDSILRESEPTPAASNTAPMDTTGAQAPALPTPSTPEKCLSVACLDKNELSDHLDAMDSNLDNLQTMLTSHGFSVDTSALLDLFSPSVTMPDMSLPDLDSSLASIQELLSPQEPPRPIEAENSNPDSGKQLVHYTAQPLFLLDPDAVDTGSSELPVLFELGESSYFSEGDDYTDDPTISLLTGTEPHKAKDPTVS
The assay can be described thus: Induction of HSF1-mediated heat-shock protein 72 expression in mouse fibroblast with plasmid EGFP at 2 uM after overnight incubation by micro plate fluorometer.

Consider `CC1=C(CO)C(=O)O[C@@H]([C@@H](C)[C@H]2CC[C@H]3[C@@H]4C[C@H]5O[C@]56[C@@H](O)[C@@H](OS(=O)(=O)O)CC(=O)[C@]6(C)[C@H]4CC[C@]23C)C1`, for which the outcome in the assay on WI-38 [1] was inactive.

What is called GI50 is the concentration that inhibits growth by half. Lower therefore signals greater sensitivity of the cells. In assay [2], `CC1=C(CO)C(=O)O[C@@H]([C@@H](C)[C@H]2CC[C@H]3[C@@H]4C[C@H]5O[C@]56[C@@H](O)C=CC(=O)[C@]6(C)[C@H]4CC[C@]23C)C1` [WITHAFERIN A] came in with a GI50 of 620 nM. The “inhibition (INH)” value with MCF7 [3] is listed as 50%. Moreover, the outcome (with MCF7 [4]; with WI-38 [5]; in assay [6]) was Active.
